Like-named read-outs stand apart in the source and are kept apart here.

By IC50 is commonly meant the concentration that inhibits the measured activity by half.

In one experiment the target is T1, mouse P2X7 (mP2X7) (Mus musculus, UniProt Q9Z1M0).
T1 construct: expressed in transfected cells
T1 sequence (Q9Z1M0 1-595): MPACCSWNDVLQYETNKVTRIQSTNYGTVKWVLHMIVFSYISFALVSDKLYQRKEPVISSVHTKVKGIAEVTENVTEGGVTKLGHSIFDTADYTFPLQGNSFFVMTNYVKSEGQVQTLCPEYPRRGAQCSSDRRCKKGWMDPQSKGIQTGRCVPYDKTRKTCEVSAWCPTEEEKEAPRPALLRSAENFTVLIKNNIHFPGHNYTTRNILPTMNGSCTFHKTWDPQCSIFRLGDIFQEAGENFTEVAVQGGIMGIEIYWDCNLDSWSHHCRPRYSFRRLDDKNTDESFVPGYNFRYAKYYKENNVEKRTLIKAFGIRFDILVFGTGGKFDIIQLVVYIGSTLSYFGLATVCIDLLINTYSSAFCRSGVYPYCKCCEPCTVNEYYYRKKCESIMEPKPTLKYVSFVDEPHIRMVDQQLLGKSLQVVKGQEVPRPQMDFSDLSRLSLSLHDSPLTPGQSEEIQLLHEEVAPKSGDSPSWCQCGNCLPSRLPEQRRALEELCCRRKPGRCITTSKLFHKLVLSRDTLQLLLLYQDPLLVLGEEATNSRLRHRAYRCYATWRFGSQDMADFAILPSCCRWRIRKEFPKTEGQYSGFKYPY
The experiment is described as follows: fura-2 intracellular calcium assay on HEK-293 stable cell line expressing mouse P2X7. The experiment is classed as cell-based. To be noted: Mouse P2X7 (Table 1); mean in brackets, n = 3. As for the experimental part: (§1) Genetically edited HEK-293 cells lacking P2Y2 receptors were used to generate stable cell lines expressing human P2X7 (hP2X7), mouse P2X7 (mP2X7), rat P2X7 (rP2X7), or mutants of the hP2X7 NAM site (F88A, M105A, and F103A). Transfection was performed using lipofectamine 2000 (Fisher Scientific), and cells were subjected to Geneticin (800 μg/mL) selection for 2–3 weeks. This was followed by single cell cloning by limiting dilution in 96-well plates. Individual clones were selected for further study based on ATP-induced TO-PRO-3 uptake on a BD Cytoflex flow cytometer. Cell lines were maintained in DMEM:F12 media supplemented with 10% fetal bovine serum (PanBiotech), penicillin and streptomycin (Fisher Scientific) and kept in a humidified incubator with 5% CO2. Stable P2X7-expressing cells were kept under Geneticin selection at a concentration of 400 μg/mL. Passaging was performed twice weekly using 0.25% Trypsin-EDTA (Fisher Scientific).
P2X7 responses were measured by monitoring intracellular calcium responses using fura-2AM loaded cells. Cells were plated at 2–2.5 × 10^4 cells/well the day before experiments in 96-well plates (NUNC) coated with 50 μg/mL poly-D-lysine (Merck Millipore). A loading buffer containing 2 μM fura-2AM (HelloBio) and 250 μM sulfinpyrazone (Merck Millipore) in a low divalent buffer (145 mM NaCl, 5 mM KCl, 0.2 mM CaCl2, 10 mM HEPES, 13 mM glucose, pH 7.3) was added to cells for 45 min at 37 °C. After loading, the buffer was removed and replaced with calcium-containing extracellular solution (145 mM NaCl, 5 mM KCl, 2 mM CaCl2, 10 mM HEPES, 13 mM glucose, pH 7.3). Responses were measured using a Flexstation 3 plate reader (Molecular Devices) with dual excitation wavelengths of 340 and 380 nm and single emission wavelength of 510 nm. The sample interval was 3.5 s, and each well was recorded for 180 s. Fura-2 ratios were calculated in Softmax Pro v5.4; zero baseline was applied, and responses were measured as normalized area under the curve (AUC). […]
On the technique in general: A change in cytosolic calcium serves as a functional read-out for many receptors and channels.

The target in the next experiment is T2, rat P2X7 (rP2X7) (Rattus norvegicus, UniProt Q64663).
T2 construct: expressed in transfected cells
T2 sequence (Q64663 1-595): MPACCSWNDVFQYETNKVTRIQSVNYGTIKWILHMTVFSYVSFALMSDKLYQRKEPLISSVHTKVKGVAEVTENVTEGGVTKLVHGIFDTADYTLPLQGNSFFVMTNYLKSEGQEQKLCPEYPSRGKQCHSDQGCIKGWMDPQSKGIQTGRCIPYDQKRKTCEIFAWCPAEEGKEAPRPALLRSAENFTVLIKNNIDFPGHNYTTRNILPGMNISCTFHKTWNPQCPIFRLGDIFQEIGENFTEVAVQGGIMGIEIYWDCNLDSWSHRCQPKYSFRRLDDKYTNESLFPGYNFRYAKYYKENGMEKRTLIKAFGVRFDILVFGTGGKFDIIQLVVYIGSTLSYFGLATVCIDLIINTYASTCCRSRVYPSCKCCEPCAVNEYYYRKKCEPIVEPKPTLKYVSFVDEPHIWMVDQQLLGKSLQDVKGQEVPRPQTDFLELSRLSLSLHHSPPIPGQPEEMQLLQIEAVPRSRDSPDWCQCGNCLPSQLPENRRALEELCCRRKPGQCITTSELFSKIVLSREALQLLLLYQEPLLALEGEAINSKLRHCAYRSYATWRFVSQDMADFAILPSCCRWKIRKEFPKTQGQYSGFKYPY
The experiment is described as follows: fura-2 intracellular calcium assay on HEK-293 stable cell line expressing rat P2X7. To be noted: Rat P2X7 (Table 1), n = 3. It counts as cell-based. As for the experimental part: as §1
P2X7 responses were measured by monitoring intracellular calcium responses using fura-2AM loaded cells. Cells were plated at 2–2.5 × 10^4 cells/well the day before experiments in 96-well plates (NUNC) coated with 50 μg/mL poly-D-lysine (Merck Millipore). A loading buffer containing 2 μM fura-2AM (HelloBio) and 250 μM sulfinpyrazone (Merck Millipore) in a low divalent buffer (145 mM NaCl, 5 mM KCl, 0.2 mM CaCl2, 10 mM HEPES, 13 mM glucose, pH 7.3) was added to cells for 45 min at 37 °C. After loading, the buffer was removed and replaced with calcium-containing extracellular solution (145 mM NaCl, 5 mM KCl, 2 mM CaCl2, 10 mM HEPES, 13 mM glucose, pH 7.3). Responses were measured using a Flexstation 3 plate reader (Molecular Devices) with dual excitation wavelengths of 340 and 380 nm and single emission wavelength of 510 nm. The sample interval was 3.5 s, and each well was recorded for 180 s. Fura-2 ratios were calculated in Softmax Pro v5.4; zero baseline was applied, and responses were measured as normalized area under the curve (AUC). Dose inhibition curves were plotted using GraphPad Prism v6 nonlinear regression (three parameter fit) and log IC50 values reported.

With `O=C(CC12CC3CC(CC(C3)C1)C2)Nc1cccc2nc(NCCNCCO)ccc12` [AZ10606120], the IC50 at mouse P2X7 (mP2X7) is 524 nM; on rat P2X7 (rP2X7) (log IC50 ± standard error, read-out: Log IC50 (converted)), 52.5 nM; on rat P2X7 (rP2X7) (mean in brackets, read-out: mean IC50) it was 53.1 nM.

These data come from article PMC12426935, “On-Cell Saturation Transfer Difference NMR Spectroscopy on Ion Channels: Characterizing Negative Allosteric Modulator Binding Interactions of P2X7” (Journal of the American Chemical Society, 2025).
